Experimental data published in ChEMBL document CHEMBL1201862, “PubChem BioAssay data set” (2004).
Calls of active or inactive are those of the source.

Columns and labels:
[1] = biological target: T1, Apoptotic protease-activating factor 1 (Homo sapiens, UniProt O14727); test: activation of Apaf-1 mediated apoptosis – fluorescent, uHTS hits, dose response (AID 588554); format: functional
T1 sequence (O14727 whole entry): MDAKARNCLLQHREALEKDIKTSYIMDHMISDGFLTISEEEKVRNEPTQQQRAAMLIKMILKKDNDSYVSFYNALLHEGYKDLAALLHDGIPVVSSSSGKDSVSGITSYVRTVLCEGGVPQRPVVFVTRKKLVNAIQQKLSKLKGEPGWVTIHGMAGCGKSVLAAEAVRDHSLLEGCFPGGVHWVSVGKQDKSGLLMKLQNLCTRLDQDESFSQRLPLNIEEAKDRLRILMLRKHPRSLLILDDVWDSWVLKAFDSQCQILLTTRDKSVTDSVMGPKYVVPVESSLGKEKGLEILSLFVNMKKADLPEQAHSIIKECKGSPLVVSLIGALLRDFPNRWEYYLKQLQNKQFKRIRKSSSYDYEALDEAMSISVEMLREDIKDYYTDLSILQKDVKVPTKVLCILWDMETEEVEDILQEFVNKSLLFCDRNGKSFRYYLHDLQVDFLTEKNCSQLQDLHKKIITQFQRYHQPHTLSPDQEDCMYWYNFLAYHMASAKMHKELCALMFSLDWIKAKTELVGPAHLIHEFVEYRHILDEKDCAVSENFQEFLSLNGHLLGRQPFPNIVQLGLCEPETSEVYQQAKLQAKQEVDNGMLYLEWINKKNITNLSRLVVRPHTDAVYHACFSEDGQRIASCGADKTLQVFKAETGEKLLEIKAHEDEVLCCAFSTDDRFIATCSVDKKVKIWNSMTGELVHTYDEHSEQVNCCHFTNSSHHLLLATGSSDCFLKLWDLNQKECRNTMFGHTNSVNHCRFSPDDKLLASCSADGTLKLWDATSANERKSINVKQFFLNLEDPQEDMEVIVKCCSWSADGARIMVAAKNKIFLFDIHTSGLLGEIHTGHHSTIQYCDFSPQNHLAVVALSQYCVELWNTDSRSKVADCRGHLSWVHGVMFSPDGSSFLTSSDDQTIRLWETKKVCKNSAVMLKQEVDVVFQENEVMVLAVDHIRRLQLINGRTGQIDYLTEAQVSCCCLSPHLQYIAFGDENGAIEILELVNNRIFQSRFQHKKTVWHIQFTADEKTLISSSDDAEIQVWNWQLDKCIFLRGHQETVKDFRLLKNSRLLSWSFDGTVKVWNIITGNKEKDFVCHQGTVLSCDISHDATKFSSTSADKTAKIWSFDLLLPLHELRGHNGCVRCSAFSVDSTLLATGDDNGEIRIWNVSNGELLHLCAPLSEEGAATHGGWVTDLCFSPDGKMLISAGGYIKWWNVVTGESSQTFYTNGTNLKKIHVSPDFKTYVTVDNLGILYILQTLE

H4 = test: Luminescence Cell-Based Dose Response HTS to Identify Activators of 5'UTR Stem-Loop Driven Prion Protein mRNA Translation in H4 Neuroglioblastoma Cells. [Related pubchem assays: 1829 (Project Summary), 1814 (Primary HTS)]; format: functional; conditions: Homo sapiens
[2] = Luminescence Cell-Based Dose Response HTS to Identify Activators of Luciferase Translation or Activity in H4 […] Cells. [Related pubchem assays: 1829 (Project Summary), 1814 (Primary HTS)]; format: functional
Keap1/Nrf2 = Keap1/Nrf2 (Homo sapiens, UniProt Q14145); test: disruptors of Keap1 binding to Nrf2 peptide – biochemical, fluorescence polarization, cherry-picked samples, dose response (AID 588683)
[3] = biological target: T2, Mannose-6-phosphate isomerase (Homo sapiens, UniProt P34949); test: phosphomannose isomerase inhibition – biochemical, fluorescence intensity, confirmation (AID 1535)
T2 sequence (P34949 whole entry): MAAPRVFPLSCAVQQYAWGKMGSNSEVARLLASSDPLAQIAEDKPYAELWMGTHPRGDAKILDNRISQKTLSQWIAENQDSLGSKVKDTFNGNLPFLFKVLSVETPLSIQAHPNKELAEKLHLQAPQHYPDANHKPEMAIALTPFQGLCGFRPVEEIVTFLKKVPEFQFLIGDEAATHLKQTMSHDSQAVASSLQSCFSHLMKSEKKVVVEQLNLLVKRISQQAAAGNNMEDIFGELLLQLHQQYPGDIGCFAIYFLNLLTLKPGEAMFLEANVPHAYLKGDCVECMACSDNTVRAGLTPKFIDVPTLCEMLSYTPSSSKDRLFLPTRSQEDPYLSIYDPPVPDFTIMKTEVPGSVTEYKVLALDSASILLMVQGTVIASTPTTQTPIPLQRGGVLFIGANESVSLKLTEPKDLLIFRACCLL

Phosphomannomutase 2 = Phosphomannomutase 2 (Homo sapiens, UniProt O15305); test: Counter screen SAR assay for PMM2 inhibitors via a fluorescence intensity assay. [Related pubchem assays (depositor defined):AID1545, AID1574]
Large T antigen = Large T antigen (Simian virus 40, UniProt P03070); format: functional, Betapolyomavirus macacae;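 also: Confirmatory-stage PubChem screen for compounds that inhibit SV40 T antigen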
[4] = biological target: Potassium voltage-gated channel subfamily KQT member 2 (Rattus norvegicus, UniProt O88943); test: rat KCNQ2 current potentiators – automated patch clamp, KCNQ2-CHO cells, SAR follow-up (AID 493113); format: functional
[5] = biological target: Lysine-specific demethylase 4C (Homo sapiens, UniProt Q9H3R0); test: inhibition of JMJD2C H3K9me3 demethylation – biochemical, DELFIA europium, cherry-picked samples, dose response (AID 488835); format: functional
[6] = biological target: T3, Replicative DNA helicase DnaB (Mycobacterium tuberculosis, UniProt P9WMR3); test: DnaB intein splicing inhibitors, dose response, biochemical, cell-free fluorescence (AID 449749); format: functional
T3 sequence (P9WMR3 whole entry): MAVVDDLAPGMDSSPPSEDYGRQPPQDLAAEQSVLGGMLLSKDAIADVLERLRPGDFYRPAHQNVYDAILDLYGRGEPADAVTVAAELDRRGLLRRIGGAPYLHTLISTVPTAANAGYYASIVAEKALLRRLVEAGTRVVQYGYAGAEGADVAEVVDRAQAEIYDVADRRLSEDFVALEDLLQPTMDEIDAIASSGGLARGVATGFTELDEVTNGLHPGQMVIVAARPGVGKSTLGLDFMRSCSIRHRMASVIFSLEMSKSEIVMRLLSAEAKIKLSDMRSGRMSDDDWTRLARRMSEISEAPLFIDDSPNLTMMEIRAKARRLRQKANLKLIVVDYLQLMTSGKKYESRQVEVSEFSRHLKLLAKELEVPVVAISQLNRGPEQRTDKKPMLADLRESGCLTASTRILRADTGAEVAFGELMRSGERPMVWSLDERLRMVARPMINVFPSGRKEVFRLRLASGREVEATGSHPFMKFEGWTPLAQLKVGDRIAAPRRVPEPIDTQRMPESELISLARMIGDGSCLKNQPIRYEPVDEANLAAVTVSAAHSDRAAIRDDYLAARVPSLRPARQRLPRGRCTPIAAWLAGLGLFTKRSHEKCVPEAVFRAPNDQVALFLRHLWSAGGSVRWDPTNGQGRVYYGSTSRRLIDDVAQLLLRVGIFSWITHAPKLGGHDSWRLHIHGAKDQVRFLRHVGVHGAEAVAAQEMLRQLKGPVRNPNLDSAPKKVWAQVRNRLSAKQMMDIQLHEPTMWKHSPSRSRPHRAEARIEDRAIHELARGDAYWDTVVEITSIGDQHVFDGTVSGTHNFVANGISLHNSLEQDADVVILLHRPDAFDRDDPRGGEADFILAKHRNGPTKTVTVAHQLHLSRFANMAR

Protein RecA = biological target: T4, Protein RecA (Mycobacterium tuberculosis, UniProt P9WHJ3); test: Fluorescence Cell-Free Homogeneous Dose Retest to Identify Inhibitors of RecA-Intein Splicing Activity. [Related pubchem assays (depositor defined):AID2097, AID2223, AID489010, AID492950]; format: functional
T4 sequence (P9WHJ3 whole entry): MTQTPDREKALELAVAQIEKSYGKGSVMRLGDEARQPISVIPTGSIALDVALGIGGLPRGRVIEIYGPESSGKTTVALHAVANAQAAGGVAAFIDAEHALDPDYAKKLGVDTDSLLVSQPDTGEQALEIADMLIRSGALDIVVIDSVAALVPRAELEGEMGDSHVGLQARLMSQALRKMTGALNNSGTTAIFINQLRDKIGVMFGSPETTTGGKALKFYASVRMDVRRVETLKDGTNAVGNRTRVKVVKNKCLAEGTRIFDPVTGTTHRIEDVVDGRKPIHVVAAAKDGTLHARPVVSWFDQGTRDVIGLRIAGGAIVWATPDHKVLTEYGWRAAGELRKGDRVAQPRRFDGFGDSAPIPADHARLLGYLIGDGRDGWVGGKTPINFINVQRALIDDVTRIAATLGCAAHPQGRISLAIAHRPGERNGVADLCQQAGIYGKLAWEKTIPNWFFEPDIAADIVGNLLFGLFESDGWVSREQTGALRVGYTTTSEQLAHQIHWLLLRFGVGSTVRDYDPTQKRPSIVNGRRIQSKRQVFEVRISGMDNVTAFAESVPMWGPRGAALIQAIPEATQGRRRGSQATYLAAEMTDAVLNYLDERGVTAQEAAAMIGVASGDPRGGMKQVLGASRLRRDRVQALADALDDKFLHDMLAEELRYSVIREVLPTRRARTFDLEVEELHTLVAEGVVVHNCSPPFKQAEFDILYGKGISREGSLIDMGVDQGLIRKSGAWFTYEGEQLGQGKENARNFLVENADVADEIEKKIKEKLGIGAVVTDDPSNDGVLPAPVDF

[7] = biological target: T2, Mannose-6-phosphate isomerase; test: MPI inhibition at elevated mannose 6-phosphate – biochemical, fluorescence intensity, high mannose 6-phosphate, primary screen (AID 1220)
[8] = biological target: T5, Histone-lysine N-methyltransferase NSD2 (Homo sapiens, UniProt O96028); format: biochemical
T5 sequence (O96028 whole entry): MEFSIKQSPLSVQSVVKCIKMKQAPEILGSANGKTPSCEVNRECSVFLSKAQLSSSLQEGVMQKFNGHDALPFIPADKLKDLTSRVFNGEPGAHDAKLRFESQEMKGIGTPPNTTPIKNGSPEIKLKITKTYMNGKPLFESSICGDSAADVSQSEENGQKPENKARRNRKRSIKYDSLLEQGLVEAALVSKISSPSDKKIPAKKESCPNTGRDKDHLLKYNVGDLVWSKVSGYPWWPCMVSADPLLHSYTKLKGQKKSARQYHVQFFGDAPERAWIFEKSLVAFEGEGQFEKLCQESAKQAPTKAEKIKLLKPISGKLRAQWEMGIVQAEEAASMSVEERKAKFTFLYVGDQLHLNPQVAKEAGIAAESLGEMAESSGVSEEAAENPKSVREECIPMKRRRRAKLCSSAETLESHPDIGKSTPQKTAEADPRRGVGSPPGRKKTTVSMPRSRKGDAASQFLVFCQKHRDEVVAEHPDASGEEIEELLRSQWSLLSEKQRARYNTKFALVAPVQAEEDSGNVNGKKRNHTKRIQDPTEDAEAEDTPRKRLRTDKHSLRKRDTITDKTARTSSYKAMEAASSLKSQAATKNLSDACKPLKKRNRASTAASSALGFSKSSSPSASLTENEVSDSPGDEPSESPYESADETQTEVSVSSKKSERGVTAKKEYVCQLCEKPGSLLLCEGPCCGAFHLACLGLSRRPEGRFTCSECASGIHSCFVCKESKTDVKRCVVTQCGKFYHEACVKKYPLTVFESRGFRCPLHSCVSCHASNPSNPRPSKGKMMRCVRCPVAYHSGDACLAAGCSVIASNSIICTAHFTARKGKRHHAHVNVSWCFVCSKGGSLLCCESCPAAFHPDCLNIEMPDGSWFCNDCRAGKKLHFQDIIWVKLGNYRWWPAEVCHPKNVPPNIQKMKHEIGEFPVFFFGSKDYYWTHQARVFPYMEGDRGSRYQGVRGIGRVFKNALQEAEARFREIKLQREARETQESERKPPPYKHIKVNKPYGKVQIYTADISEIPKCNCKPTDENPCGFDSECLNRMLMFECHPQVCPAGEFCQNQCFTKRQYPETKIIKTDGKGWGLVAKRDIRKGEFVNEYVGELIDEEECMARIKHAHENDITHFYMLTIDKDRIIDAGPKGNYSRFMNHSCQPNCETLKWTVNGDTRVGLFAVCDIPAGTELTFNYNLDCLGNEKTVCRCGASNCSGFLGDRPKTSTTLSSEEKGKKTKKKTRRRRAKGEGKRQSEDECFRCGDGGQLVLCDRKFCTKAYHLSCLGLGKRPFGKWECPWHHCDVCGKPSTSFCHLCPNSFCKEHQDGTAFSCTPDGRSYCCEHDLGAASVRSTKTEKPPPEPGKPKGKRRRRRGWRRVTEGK

Chain of Phosphomannomutase 2 (O15305 whole entry): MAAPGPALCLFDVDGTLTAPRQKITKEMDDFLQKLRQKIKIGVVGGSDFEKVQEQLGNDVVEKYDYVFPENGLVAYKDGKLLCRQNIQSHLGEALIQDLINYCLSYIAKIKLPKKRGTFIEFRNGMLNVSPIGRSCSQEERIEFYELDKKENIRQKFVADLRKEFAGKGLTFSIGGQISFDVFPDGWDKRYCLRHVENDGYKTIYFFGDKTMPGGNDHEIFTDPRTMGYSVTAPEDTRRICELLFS
Chain of Lysine-specific demethylase 4C (Q9H3R0 whole entry): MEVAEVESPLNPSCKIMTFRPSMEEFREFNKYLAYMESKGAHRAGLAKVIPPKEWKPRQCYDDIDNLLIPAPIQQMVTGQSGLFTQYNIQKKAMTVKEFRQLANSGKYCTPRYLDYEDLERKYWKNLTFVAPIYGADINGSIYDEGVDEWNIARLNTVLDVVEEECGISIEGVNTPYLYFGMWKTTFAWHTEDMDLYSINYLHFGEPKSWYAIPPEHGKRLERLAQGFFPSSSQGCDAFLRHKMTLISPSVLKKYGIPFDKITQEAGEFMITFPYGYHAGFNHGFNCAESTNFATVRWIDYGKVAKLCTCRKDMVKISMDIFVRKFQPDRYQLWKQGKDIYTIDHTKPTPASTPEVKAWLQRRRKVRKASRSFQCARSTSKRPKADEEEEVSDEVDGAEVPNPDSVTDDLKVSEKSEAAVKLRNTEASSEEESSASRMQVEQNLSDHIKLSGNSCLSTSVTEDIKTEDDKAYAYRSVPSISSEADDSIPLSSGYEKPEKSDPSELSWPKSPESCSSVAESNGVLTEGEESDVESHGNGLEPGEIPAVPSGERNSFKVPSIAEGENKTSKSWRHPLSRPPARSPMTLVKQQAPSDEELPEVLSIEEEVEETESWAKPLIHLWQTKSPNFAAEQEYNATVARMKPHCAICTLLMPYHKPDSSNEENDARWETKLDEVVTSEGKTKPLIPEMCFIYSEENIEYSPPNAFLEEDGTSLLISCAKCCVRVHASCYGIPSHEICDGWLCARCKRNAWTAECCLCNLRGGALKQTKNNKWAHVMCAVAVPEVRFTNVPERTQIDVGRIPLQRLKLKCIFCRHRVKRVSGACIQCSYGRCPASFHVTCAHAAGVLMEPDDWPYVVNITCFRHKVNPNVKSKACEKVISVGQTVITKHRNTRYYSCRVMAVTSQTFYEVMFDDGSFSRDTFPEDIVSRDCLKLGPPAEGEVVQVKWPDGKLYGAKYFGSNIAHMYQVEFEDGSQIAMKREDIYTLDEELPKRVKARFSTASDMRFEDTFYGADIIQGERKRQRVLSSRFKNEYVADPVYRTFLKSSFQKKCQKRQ
Chain of Potassium voltage-gated channel subfamily KQT member 2 (O88943 whole entry): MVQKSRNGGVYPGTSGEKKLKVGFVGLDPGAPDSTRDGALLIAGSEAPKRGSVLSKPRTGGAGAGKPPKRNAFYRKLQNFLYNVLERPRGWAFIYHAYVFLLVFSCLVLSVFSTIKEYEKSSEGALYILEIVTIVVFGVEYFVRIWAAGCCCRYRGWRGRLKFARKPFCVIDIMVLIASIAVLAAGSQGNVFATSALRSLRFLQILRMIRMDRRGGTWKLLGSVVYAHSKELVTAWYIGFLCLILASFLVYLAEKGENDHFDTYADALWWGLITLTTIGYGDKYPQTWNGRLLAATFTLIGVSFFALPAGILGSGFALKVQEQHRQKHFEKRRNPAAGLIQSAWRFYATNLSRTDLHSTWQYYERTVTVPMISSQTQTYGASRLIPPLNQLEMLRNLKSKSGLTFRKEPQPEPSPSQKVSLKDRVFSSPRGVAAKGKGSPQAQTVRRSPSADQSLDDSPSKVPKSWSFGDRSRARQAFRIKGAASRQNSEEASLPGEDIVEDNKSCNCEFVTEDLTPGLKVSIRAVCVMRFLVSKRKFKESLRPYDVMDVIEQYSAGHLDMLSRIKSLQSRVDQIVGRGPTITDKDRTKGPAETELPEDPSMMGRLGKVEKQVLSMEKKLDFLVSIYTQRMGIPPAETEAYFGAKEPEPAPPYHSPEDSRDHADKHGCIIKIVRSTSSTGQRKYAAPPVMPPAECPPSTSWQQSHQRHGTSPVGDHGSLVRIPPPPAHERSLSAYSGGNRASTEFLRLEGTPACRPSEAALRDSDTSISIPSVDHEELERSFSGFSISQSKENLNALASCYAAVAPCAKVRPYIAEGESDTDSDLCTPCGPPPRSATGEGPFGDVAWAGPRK
Chain of Large T antigen (P03070 whole entry): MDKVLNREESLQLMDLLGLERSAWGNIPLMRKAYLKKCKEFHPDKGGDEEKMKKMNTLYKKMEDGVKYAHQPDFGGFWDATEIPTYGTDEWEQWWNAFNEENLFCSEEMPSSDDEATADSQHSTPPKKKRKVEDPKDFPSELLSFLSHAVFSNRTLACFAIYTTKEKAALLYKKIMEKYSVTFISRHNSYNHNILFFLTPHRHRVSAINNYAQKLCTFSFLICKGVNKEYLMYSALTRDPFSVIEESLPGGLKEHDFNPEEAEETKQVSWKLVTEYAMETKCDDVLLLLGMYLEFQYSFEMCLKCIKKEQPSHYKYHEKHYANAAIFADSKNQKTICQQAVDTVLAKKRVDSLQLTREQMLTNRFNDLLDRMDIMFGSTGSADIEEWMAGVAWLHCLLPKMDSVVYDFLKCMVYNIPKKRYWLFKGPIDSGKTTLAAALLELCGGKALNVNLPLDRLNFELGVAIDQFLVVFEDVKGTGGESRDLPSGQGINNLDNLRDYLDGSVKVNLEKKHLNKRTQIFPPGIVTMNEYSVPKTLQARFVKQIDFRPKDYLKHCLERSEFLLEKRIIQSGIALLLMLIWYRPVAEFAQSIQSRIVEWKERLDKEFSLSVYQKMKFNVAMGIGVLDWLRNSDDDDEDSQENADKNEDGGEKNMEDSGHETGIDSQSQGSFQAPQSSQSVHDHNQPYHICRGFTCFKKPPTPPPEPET
Chain of Keap1/Nrf2 (Q16236 whole entry): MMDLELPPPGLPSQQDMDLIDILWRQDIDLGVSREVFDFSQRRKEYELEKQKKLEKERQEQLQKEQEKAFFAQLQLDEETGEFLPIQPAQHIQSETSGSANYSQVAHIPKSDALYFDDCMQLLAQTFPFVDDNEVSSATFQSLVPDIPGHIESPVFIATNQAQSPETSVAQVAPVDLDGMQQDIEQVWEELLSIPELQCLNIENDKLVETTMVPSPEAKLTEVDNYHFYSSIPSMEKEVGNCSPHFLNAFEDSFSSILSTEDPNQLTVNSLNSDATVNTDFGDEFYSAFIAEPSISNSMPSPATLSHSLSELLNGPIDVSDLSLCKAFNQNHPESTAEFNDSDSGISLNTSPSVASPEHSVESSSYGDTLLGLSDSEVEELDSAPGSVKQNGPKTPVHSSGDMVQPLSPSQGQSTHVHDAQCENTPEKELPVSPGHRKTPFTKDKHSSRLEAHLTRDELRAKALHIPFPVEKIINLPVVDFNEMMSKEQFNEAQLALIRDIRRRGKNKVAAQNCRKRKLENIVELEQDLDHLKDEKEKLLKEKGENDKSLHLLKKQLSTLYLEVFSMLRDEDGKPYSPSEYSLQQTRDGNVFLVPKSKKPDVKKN
Chain of Keap1/Nrf2 (Q14145 whole entry): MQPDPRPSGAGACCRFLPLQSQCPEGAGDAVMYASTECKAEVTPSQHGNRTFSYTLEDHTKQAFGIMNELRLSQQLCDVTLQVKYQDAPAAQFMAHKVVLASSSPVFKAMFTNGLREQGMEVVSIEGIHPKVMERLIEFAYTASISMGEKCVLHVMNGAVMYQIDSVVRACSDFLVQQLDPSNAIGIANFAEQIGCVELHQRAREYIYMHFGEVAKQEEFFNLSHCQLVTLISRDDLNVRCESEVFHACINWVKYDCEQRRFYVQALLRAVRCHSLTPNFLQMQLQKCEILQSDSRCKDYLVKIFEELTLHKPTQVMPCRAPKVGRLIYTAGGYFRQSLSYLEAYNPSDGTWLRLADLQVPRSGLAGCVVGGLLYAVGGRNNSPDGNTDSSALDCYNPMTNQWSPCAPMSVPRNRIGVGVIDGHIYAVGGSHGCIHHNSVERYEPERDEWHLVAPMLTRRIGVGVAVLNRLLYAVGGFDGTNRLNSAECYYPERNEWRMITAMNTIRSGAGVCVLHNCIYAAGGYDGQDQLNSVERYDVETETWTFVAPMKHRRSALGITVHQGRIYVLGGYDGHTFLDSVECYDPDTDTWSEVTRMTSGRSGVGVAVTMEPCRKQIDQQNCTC

O=C1C2(CCCC13COC(c1ccc(O)cc1)OC3)COC(c1ccc(O)cc1)OC2 (stereo not drawn)
EC50 [1]: 9.2 µM (active)

O=c1c(-c2cc3ccccc3o2)[n+]([O-])c2ccccc2n1OCc1ccccn1
EC50 (H4): 65.5 µM (inconclusive)
EC50 [2]: 4.81 µM (active)
AC50 (Keap1/Nrf2): > 52 µM (inactive)

CCOc1ccc(-c2n[nH]c(=S)[nH]2)cc1
IC50 [3]: 39.1 µM (active)
IC50 (Phosphomannomutase 2): > 100 µM (inactive)
IC50 (Large T antigen): > 100 µM (active)

Cc1cc(C)c(NC(=O)CCC2CCCC2)c(C)c1
EC50 [4]: 0.49 µM (active)

Cc1nnc(N/N=C\c2ccc(-c3ccccc3[N+](=O)[O-])o2)n1N
AC50 [5]: 7.3 µM (active)
AC50 [6]: 58.9 µM (active)
EC50 (Protein RecA): 23.5 µM (active)
IC50 [7]: > 50 µM (not active)
AC50 [8]: 10.3 µM (active)
